Measurements reported in ChEMBL document CHEMBL5634122, “Integrated fragment-based drug design and virtual screening techniques for exploring the antidiabetic potential of thiazolidine-2,4-diones: Design, synthesis and in vivo studies” (Eur J Med Chem, 2023).

What was measured:
HEK293 = assay: Cytotoxicity against HEK293 cells assessed as reduction in cell viability at 100 to 8000 nM incubated for 24 hrs by MTT assay; assay type: toxicity, cell-based; settings: human, hek293, 24 h, 8 µM, dose 100-8000 nM
[1] = Toxicity in Zebra fish assessed as change in body weight at 10 mg/kg measured after 10 days; assay type: organism-based, Danio rerio; settings: zebrafish, in vivo, 240 h, time 10 day
[2] = target: T1, Peroxisome proliferator-activated receptor gamma (Homo sapiens, UniProt P37231); assay: Agonist activity at PPARgamma in HEK293 cells assessed as transactivation incubated for 5 to 10 mins by microplate reader analysis; assay type: cell-based
T1 sequence (P37231 whole entry): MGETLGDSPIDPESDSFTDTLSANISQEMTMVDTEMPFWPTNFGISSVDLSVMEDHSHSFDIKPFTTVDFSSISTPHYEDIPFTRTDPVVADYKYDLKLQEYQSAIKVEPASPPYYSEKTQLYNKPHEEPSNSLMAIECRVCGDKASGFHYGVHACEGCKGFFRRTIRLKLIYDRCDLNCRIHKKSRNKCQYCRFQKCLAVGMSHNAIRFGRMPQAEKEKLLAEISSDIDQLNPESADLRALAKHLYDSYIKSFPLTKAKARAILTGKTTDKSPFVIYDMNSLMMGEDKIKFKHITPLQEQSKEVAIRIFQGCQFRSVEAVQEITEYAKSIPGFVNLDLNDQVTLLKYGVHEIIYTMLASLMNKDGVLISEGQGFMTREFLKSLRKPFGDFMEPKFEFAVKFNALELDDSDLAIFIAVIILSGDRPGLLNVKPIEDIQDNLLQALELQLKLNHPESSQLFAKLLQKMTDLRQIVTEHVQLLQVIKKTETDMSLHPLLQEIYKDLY

Mus musculus [3] = assay: Antidiabetic activity in STZ-induced Swiss albino diabetic mouse model assessed as blood glucose levels at 36 mg/kg, po measured after 120 mins by oral glucose tolerance test; assay type: functional; settings: 2 h
Mus musculus [4] = assay: Antidiabetic activity in STZ-induced Swiss albino diabetic mouse model assessed as blood glucose levels at 36 mg/kg, po measured on day 1,3,5,7 and 15 by glucometer; assay type: functional; settings: time 15 day
Mus musculus [5] = assay: Antidiabetic activity in STZ-induced Swiss albino diabetic mouse model assessed as blood glucose levels at 36 mg/kg, po measured after 30 mins by oral glucose tolerance test (reference value: 213.5 mg/dl); assay type: functional; settings: 0.5 h
Mus musculus [6] = assay: Antidiabetic activity in STZ-induced Swiss albino diabetic mouse model assessed as blood glucose levels at 36 mg/kg, po measured immediately by oral glucose tolerance test (reference value: 234.5 mg/dl); assay type: functional
Mus musculus [7] = assay: Antidiabetic activity in STZ-induced Swiss albino diabetic mouse model assessed as blood glucose levels at 36 mg/kg, po measured after 60 mins by oral glucose tolerance test (reference value: 199.16 mg/dl); assay type: functional; settings: 1 h
Mus musculus [8] = assay: Antidiabetic activity in STZ-induced Swiss albino diabetic mouse model assessed as reduction in triglyceride level in serum at 36 mg/kg, po (reference value: 131.83 +/- 12.12 mg/dl); assay type: functional
[9] = Toxicity in Swiss albino mouse assessed as reduction in body weight at 36 mg/kg, po measured for 15 days; assay type: organism-based; settings: in vivo, 360 h, time 15 day
Mus musculus [10] = assay: Antidiabetic activity in STZ-induced Swiss albino diabetic mouse model assessed as reduction in LDL level in serum at 36 mg/kg, po (reference value: 61.83 +/- 4.08 mg/dl); assay type: functional
Mus musculus [11] = assay: Antidiabetic activity in STZ-induced Swiss albino diabetic mouse model assessed as increase in HDL level in serum at 36 mg/kg, po (reference value: 26 +/- 4.83 mg/dl); assay type: functional
Mus musculus [12] = assay: Antidiabetic activity in STZ-induced Swiss albino diabetic mouse model assessed as increase in total cholesterol level in serum at 36 mg/kg, po (reference value: 51.16 +/- 6.89 mg/dl); assay type: functional
Danio rerio = assay: Antidiabetic activity in STZ-induced Zebra fish diabetic model assessed as blood glucose level at 36 mg/kg measured after 10 days; assay type: functional; settings: time 10 day
[13] = Toxicity in Swiss albino mouse assessed as reduction in body weight at 10 mg/kg, po measured for 15 days; assay type: organism-based; settings: in vivo, 360 h, time 15 day

EC50 [2] | Structure (SMILES) | Activity (HEK293) | other results
 | Cc1ccc(CN2C(=O)S/C(=C\c3ccc(Nc4ccccc4Cl)s3)C2=O)cc1 | Non-Toxic | Activity [1]: Non-Toxic
1540 nM | Cc1ccc(CN2C(=O)S/C(=C\c3ccc(Oc4ccc([N+](=O)[O-])cc4)s3)C2=O)cc1 | Non-Toxic | 
2740 nM | Cc1ccc(CN2C(=O)S/C(=C\c3ccc(Oc4ccccc4)s3)C2=O)cc1 | Non-Toxic | 
3570 nM | Cc1ccc(CN2C(=O)S/C(=C\c3ccc(Oc4ccc5ccccc5c4)s3)C2=O)cc1 | Non-Toxic | 
 | COc1cccc(CN2C(=O)S/C(=C\c3ccc(Nc4ccc(Cl)cc4)cc3)C2=O)c1 | Non-Toxic | 
 | CCc1ccc(CCOc2ccc(CC3SC(=O)NC3=O)cc2)nc1 (centres undefined) [PIOGLITAZONE] | Non-Toxic | Activity (Mus musculus [3]): 112 mg/dL; Activity (Mus musculus [4]): 132.2 mg/dL; Activity (Mus musculus [5]): 214.16 mg/dL; Activity (Mus musculus [6]): 234.8 mg/dL; Activity (Mus musculus [7]): 150.83 mg/dL; Activity (Mus musculus [8]): 52 mg/dL; Activity [9]: Non-Toxic; Activity (Mus musculus [10]): 30.16 mg/dL; Activity (Mus musculus [11]): 26 mg/dL; Activity (Mus musculus [12]): 51.16 mg/dL; Activity (Danio rerio): 112 mg/dL
1360 nM | Cc1ccc(CN2C(=O)S/C(=C\c3ccc(Nc4ccc(Cl)cc4)cc3)C2=O)cc1 | Non-Toxic | 
2010 nM | Cc1ccc(CN2C(=O)S/C(=C\c3ccc(OCc4ccccc4)s3)C2=O)cc1 | Non-Toxic | 
1550 nM | Cc1ccc(CN2C(=O)S/C(=C\c3ccc(Nc4ccc([N+](=O)[O-])cc4)s3)C2=O)cc1 | Non-Toxic | 
 | COc1cccc(CN2C(=O)S/C(=C\c3ccc(Nc4cccc(Cl)c4)cc3)C2=O)c1 | Non-Toxic | 
1470 nM | Cc1ccc(CN2C(=O)S/C(=C\c3ccc(Nc4ccc(Cl)cc4)s3)C2=O)cc1 | Non-Toxic | 
 | Cc1ccc(CN2C(=O)S/C(=C\c3ccc(Nc4cccc(Cl)c4)s3)C2=O)cc1 | Non-Toxic | Activity [13]: Non-Toxic; Activity [1]: Non-Toxic
 | Cc1ccc(CN2C(=O)S/C(=C\c3ccc(Nc4ccccc4[N+](=O)[O-])s3)C2=O)cc1 | Non-Toxic | 
